Data taken from US20110105554A1, “MEANS FOR TREATING MYOSIN-RELATED DISEASES” (KINARIS BIOMEDICALS GMBH, priority 2007, published 2011).

Legend:
chicken myosin-5a = chicken myosin-5a (Gallus gallus, UniProt Q02440); assay: In vitro motility assay (actin filament sliding), myosin-5a; type: biochemical; details: 10 μM PBP
Experimental: (b) Inhibition of chicken myosin-5a by PBP in the in vitro motility assay. The histograms show the average sliding velocity of Rh/Ph-labeled actin filaments in the absence and presence of 10 μM PBP. Myosin-5a moves actin filaments with an average velocity of 0.6 μm/s±0.05 (dark bars); addition of 10 μM PBP into the same flow cell decreases the average sliding velocity to 0.013 μm/s±0.002 (light grey bars).
The extent and order of isoform-specific differences in the potency of the inhibitor were additionally confirmed by the results of in vitro motility assays). […] (FIG. 11a) Myosin-5a moves actin filaments with an average velocity of 0.6 μm/s±0.05 (dark bars); addition of 10 μM PBP into the same flow cell lead to a 46-fold reduction of the average sliding velocity to 0.013 μm/s±0.002 (light grey bars).
Direct functional Assays. Actin-sliding motility was performed at 25° C. using an Olympus IX81 inverted fluorescence microscope. Experimental flow cells were constructed using bovine serum albumin (0.5 mg/ml in assay buffer)-coated glass slides and nitrocellulose-coated coverslips. Myosins were actin affinity-purified immediately before use, to remove rigor heads^20. […] Average sliding velocity was determined from the Gaussian distribution of automatically tracked actin filaments using DiaTrack 3.0 and Origin 7.0.

[1] = target: T1, M761 (myosin-2 motor domain from D. discoideum) (Dictyostelium discoideum, UniProt P08799, C312Y/S249N); assay: Quench-flow ATP hydrolysis (Pi-burst) with M761; type: biochemical; details: 50 μM PBP
T1 construct: amino acids 3 to 761 of myosin-2 from D. discoideum; His-tag (N); made in house; host or cells: D. discoideum AX3-ORF+ cells
T1 sequence (P08799 3-761 S249N/C312Y): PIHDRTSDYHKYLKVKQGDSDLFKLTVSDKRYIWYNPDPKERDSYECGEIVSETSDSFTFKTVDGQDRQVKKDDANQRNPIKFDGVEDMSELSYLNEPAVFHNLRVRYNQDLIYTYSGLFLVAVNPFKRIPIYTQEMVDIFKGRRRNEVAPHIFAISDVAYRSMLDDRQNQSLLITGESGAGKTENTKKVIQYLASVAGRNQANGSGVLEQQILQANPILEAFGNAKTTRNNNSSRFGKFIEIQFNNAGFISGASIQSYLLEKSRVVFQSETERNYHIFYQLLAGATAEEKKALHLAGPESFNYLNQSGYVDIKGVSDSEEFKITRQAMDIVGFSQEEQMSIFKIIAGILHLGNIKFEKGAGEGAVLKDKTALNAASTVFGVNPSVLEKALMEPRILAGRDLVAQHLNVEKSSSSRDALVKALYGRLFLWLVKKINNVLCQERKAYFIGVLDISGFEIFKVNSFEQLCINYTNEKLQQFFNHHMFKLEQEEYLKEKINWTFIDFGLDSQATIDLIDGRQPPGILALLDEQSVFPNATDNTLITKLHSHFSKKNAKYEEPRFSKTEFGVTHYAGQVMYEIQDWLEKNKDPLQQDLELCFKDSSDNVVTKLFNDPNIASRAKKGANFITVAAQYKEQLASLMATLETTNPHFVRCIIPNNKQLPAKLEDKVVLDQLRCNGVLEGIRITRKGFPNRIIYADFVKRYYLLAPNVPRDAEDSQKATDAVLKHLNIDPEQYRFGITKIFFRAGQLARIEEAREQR
Experimental: Effect of Pentabromopseudilin on ATP binding kinetics to DdMyosin-5b and acto-DdMyosin-5b. (FIG. 10a) Fluorescence transients obtained upon mixing 1 μM DdMyosin-5b with 10 μM mantATP in the absence and presence of 5 μM, 25 μM, 50 μM and 100 μM PBP. Mant-fluorescence was excited at 365 nm and detected after passing through a KV 389 nm cut-off filter. The fluorescent signal of mantATP binding to DdMyosin-5b in the absence of PBP follows a single exponential function (upper curve). The presence of increasing concentrations of PBP lead to reduced amplitudes of the fluorescent signals that are best fit by double exponentials. (FIG. 10b) Plot of the relative amplitudes of mantATP binding to Dd Myosin-5b at different PBP concentrations. […] (FIG. 10c) Fluorescence transients of the ATP induced dissociation of pyrene-acto-DdMyosin-5b in the absence (black curve) and presence (grey curve) of 50 μM PBP. (FIG. 10d) Quench-flow experiments of the ATP hydrolysis reaction upon mixing 5 μM M761 with 25 μM ATP in the absence (solid squares) and presence (open circles) of 50 μM PBP. The Pi-burst (kburst=7.8±0.2 sin the absence and 2.5±0.1 s^−1 in the presence of PBP) was followed by a linear steady-state phase. […]
Quench-flow Experiments. […] The relative amounts of […] and ATP were quantified using a phosphorimager (Fujix BAS1000, Fuji), the software MacBAS V 2.4, TINA V 2.09f, and Origin 7.0.

[2] = system: skinned muscle fibre preparations from rabbit psoas muscle; assay: Isometric force measurement on skinned muscle fibres
Text: To test the effect of PBP on fully assembled myofilament arrays, we examined the contractile properties of skinned muscle fibre preparations from rabbit psoas muscle. Pentabromopseudilin leads to a more than 4-fold reduction in isometric force development of skinned muscle fibre preparations from rabbit psoas muscle. The Ki is in the same range as that determined for actomyosin ATPase activity. (FIG. 12)

Sequence of chicken myosin-5a (Q02440 1-764): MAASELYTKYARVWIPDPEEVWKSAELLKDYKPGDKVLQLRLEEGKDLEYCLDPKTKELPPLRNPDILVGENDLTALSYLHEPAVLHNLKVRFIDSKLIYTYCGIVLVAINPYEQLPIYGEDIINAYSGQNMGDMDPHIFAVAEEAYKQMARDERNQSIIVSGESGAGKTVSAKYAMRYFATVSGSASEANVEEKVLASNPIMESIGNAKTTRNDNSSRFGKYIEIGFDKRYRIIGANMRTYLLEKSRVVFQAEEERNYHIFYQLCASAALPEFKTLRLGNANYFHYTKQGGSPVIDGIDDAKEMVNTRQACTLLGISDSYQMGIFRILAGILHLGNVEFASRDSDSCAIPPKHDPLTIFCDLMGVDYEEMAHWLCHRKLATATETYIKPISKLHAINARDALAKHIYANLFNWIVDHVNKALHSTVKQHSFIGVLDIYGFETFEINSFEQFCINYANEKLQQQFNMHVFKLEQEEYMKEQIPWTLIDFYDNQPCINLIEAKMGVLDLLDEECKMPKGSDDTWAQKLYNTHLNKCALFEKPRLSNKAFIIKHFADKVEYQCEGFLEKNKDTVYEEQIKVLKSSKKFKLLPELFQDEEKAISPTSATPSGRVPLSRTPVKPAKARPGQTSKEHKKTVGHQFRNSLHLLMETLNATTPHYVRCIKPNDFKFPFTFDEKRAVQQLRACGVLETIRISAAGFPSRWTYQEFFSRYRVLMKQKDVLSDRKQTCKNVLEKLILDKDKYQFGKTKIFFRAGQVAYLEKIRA

## Oc1c(Br)cc(Br)cc1-c1[nH]c(Br)c(Br)c1Br [KIN-43]
Chicken myosin-5a
  fold reduction of the average sliding velocity: 46 fold
Chicken myosin-5a; 0.6 μm/s without
  average sliding velocity of actin filaments: 0.013 μm/s
[1]; 5 μM M761, 25 μM ATP
  Pi-burst rate kburst: 2.5 ± 0.1 s⁻¹
[1]; 0.95 in the absence
  amplitude of the burst: 0.5
[2]
  fold reduction in isometric force development: more than 4 fold
